Patent publication US11673898B2, “Substituted inhibitors of menin-MLL and methods of use” (Kura Oncology, Inc., priority 2016, dated 2023)
Read-outs that look alike come from different tables or passages of the source. One block for each compound: values may come before it.

Legend:
MV4; 11-luc tumors = assay: Efficacy study in xenotransplantation mouse model of MLL leukemia (luminescence); format: in vivo; conditions: NSG mice, 120 mg/kg b.i.d. oral gavage, 6 days of treatment
Procedure: Example 20: Efficacy study in xenotransplantation mouse model ofMLL leukemia. […] Luciferase expressing human MV4; 11 leukemia cells (MV4; 11-luc) were engrafted intravenously via tail vein injection (1×10^7 cells/animal) When the mean luminescence of the cells reached approximately 1.5×10^6, the tumor-bearing mice were randomly assigned to a vehicle control or a compound treatment group (5 animals per group). Animals in each of the treatment groups were administered a different compound of the present disclosure by oral gavage (120 mg/kg b.i.d, 150 mg/kg b.i.d., 200 mg/kg b.i.d., or 200 mg/kg q.d.). Body weight was measured daily, while mean luminescence was measured 6 days after initiating the treatment with compound or vehicle.

Menin MLL 4-43 = molecular target: T1, Menin MLL 4-43 (Homo sapiens, UniProt O00255); assay: Fluorescence polarization (FP) competition assay of the menin-MLL interaction; format: binding
T1 sequence (O00255 1-610): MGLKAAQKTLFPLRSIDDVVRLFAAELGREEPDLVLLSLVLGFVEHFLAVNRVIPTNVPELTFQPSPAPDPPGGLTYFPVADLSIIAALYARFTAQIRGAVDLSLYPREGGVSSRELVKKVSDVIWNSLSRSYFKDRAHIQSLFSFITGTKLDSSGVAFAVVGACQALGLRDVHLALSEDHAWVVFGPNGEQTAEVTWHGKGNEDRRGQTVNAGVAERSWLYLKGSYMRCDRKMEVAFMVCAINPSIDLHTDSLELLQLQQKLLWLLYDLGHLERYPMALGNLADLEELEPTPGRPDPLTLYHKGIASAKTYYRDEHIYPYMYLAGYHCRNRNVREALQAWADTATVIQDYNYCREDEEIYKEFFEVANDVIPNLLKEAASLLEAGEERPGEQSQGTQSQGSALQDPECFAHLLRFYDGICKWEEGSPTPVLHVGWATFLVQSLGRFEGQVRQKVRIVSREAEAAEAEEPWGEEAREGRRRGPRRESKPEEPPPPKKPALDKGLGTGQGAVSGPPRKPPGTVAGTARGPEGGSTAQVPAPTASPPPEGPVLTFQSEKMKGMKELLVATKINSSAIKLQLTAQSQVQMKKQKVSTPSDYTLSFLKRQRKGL

MLL-AF9 BMC = assay: Cell proliferation assay (CellTiter-Glo); format: cell-based
Procedure: Example 9: Cell proliferation assay. The ability of a compound of the present disclosure to inhibit the growth of cells, such as human leukemia cell, acute myeloid leukemia cell, cells with an MLL fusion, control cells without an MLL fusion, VCaP, LNCaP, 22RV1, DU145, LNCaP-AR, MV4; 11, KOPN-8, ML-2, MOLM-13, RS4; 11, SEM, bone marrow cells (BMCs), MLL-AF9, MLL-AF4, MLL-ENL, MLL-CBP, MLL-GAS7, MLL-AF1p, MLL-AF6, HM-2, E2A-HLF, REH, U937, K562, KG-1, HL-60 and NB4 cells, is tested using a cell viability assay, such as the Promega CellTiter-Glo® Luminescent Cell Viability Assay (Promega Technical Bulletin, 2015, “CellTiter-Glo® Luminescent Cell Viability Assay”: 1-15, herein incorporated by reference in its entirety). Cells are plated at relevant concentrations, for example about 1×10^5-2×10^5 cells per well in a 96-well plate. A compound of the present disclosure is added at a concentration up to about 2 μM with eight, 2-fold serial dilutions for each compound. Cells are incubated at 37° C. for a period of time, for example, 72 hours, then cells in the control wells are counted. Media is changed to restore viable cell numbers to the original concentration, and compounds are re-supplied. Proliferation is measured about 72 hours later using Promega CellTiter-Glo® reagents, as per kit instructions.

[1] = tested on: KOPN8 (MLL-ENL AML) cells; assay: MTT cell proliferation assay; format: cell-based
Procedure: (§1) Example 18: Cell proliferation assays. The ability of a compound of the present disclosure to inhibit the growth of cells was tested in both MLL leukemia cell lines (e.g., MV4; 11, MOLM13 and/or KOPN8) and control cell lines (e.g., K562, REH, U937, KG-1, and/or HL-60) using the MTT cell proliferation assay (ATCC® 30-1010K). […] Cells were plated at about 1×10^5 cells per well in a 96-well plate. A compound of the present disclosure was added at a concentration up to about 2 μM with seven, 2-fold serial dilutions for each compound. Cells were incubated at 37° C. for 72 hours, then cells in the control wells were counted. Media was changed to restore viable cell numbers to the original concentration, and compounds were re-supplied. Proliferation was measured 96 hours later using MTT reagents, as per kit instructions. […] The GIso value of a compound of the present disclosure, such as Compound D of FIG. 11, was 10 nM in MV4; 11 cells (MLL-AF4 AML), 17 nM in MOLM13 cells (MLL-AF9 AML), 18 nM in KOPN8 (MLL-ENL AML) cells, greater than 2000 nM in HL-60 cells, and greater than 2000 nM in U937 cells. REH, K562, KG-1, and U937 cells are control cell lines without MLL fusions.

[2] = tested on: MOLM13 cells (MLL-AF9 AML); assay: MTT cell proliferation assay; format: cell-based
Procedure: as §1

[3] = tested on: MV4; 11 cells (MLL-AF4 AML); assay: MTT cell proliferation assay; format: cell-based, human
Procedure: as §1

MOLM13 cells = assay: Survival study in xenotransplantation MOLM13 xenograft model; format: in vivo, mouse
Procedure: For survival studies in the xenotransplantation MOLM13 xenograft model, 6 to 8-week old female NSG mice were intravenously injected with 0.5×10^6 MOLM13 cells harboring […] translocation. At day 4 after transplantation, treatment was initiated with Compound C, 75 mg/kg, b.i.d., p.o. or vehicle (20% 2-hydroxypropyl-b-cyclodextrin with 5% cremophore) and was continued for 16 consecutive days in the compound treated mice or until terminal leukemia developed in the vehicle-treated mice.
Similarly, a 120 mg/kg b.i.d. treatment regimen of Compound D was initiated on day 6 after MOLM13 transplantation and continued for 16 consecutive days in the compound treated mice or until terminal leukemia developed in the vehicle-treated mice.

[4] = tested on: MLL fusion protein target genes HOXA9, DLX2, MEIS1 and differentiation marker CD11B; assay: qRT-PCR gene expression in bone marrow samples of treated xenotransplantation mice; format: in vivo, mouse; conditions: Day 7 of treatment, qRT-PCR normalized to GAPDH
Procedure: Animals were sacrificed on Day 7 of treatment and bone marrow samples collected and prepared for gene expression analysis. Expression levels of MLL fusion protein target genes HOXA9, DLX2, and/or MEIS1 were measured by qRT-PCR and are presented in FIG. 6, FIG. 9 and FIG. 12 as fold changes normalized to GAPDH expression.

HL-60 cells = assay: MTT cell proliferation assay, control cell line; format: cell-based; conditions: HL-60 cells (control)
Procedure: as §1

U937 cells = assay: MTT cell proliferation assay, control cell line; format: cell-based
Procedure: as §1

[5] = fluorescence polarization assay, read-out: Menin MLL 4-43 IC50

Structure (SMILES): Cc1nc(NC2CCN(Cc3ccc4c(cc(C#N)n4C[C@H](C)N4CCC(S(C)(=O)=O)CC4)c3C)CC2)c2cc(CC(F)(F)F)sc2n1 [Compound 165]
- Tumor growth (luminescence) relative to vehicle control (MV4; 11-luc tumors): inhibited tumor growth and induced tumor regression
- IC50 (Menin MLL 4-43; [5]): < 50 nM
- IC50 (Menin MLL 4-43; read-out: IC50 value (ability to disrupt the menin-MLL interaction, per Example 6)): < 50 nM
- GI50 (MLL-AF9 BMC): < 10 nM

- IC50 (Menin MLL 4-43; [5]): < 50 nM
Structure (SMILES): CNc1nc(NC2CCN(Cc3ccc4c(cc(C#N)n4C[C@H](C)N4CCC(C)(O)CC4)c3C)CC2)c2cc(CC(F)(F)F)sc2n1 [Compound 207]
- GI50 (MLL-AF9 BMC): < 10 nM

- IC50 (Menin MLL 4-43; [5]): < 50 nM
Structure (SMILES): CNS(=O)(=O)C1CCN([C@@H](C)Cn2c(C#N)cc3c(C)c(CN4CCC(Nc5nc(OC)nc6sc(CC(F)(F)F)cc56)CC4)ccc32)CC1 [Compound 214]
- GI50 (MLL-AF9 BMC): < 10 nM

- IC50 (Menin MLL 4-43; [5]): < 50 nM
Structure (SMILES): CNC(=O)C1CN([C@@H](C)Cn2c(C#N)cc3c(C)c(CN4CCC(Nc5nc(NC)nc6sc(CC(F)(F)F)cc56)CC4)ccc32)CCO1 (stereo partly drawn) [Compound 217]
- GI50 (MLL-AF9 BMC): 10 to 50 nM

Structure (SMILES): Cc1nc(NC2CCN(Cc3ccc4c(cc(C#N)n4C[C@H](C)N4CCC(S(C)(=O)=O)CC4)c3C)CC2)c2cc(CC(F)(F)F)sc2n1 [Compound D]
- GI50 [1]: 18 nM
- GI50 [2]: 17 nM
- GI50 [3]: 10 nM
- Median survival time (MOLM13 cells; NSG mice, 120 mg/kg b.i.d., 16 consecutive days from day 6 after MOLM13 transplantation): 24 days
- Survival benefit (MOLM13 cells; versus vehicle control group): 75%
- Survival benefit (MOLM13 cells; versus vehicle control group (16 days)): 18 days
- Expression level of HOXA9 [4]: substantially reduced
- Expression level of MEIS1 [4]: substantially reduced
- Expression of differentiation marker CD1 lb [4]: elevated
- GI50 (HL-60 cells): > 2000 nM
- GI50 (U937 cells): > 2000 nM
